Tested on: histone modifications in MCF-7 cells
Assay: Histone modification analysis by bottom-up LC-MS/MS
Format: cell-based
Settings: for Average ratio, H2A1_12_17 unmod (AKAKTR): peptide H2A1_12_17 unmod; for Average ratio, H2A1_12_17 unmod (AKAKTR) / Average ratio, H2A3_12_17 K15me1 (AKAKSR) / Ratio, H2A1_12_17 unmod / Ratio, H2A3_12_17 K15me1: MCF-7; for Average ratio, H2A1_12_17 unmod (AKAKTR) / Average ratio, H2A3_12_17 K15me1 (AKAKSR): average of 3 replicates; for Average ratio, H2A3_12_17 K15me1 (AKAKSR): peptide H2A3_12_17 K15me1
Description: In this approach. […] Histones are then extracted from cell pellets and chemically derivatized with propionic anhydride, digested with trypsin, subjected to a second round of propionylation, and analyzed by LC-MS/MS. Measuring the relative intensity of modified versus unmodified forms of individual histone peptides enables simultaneous monitoring of multiple potential biomarkers of MYST inhibition. To minimize false positives, we focused on abundant and reproducible modifications (average stoichiometry of greater than 1% across triplicate samples, standard deviation less than or equal to the average measurement). To account for potential histone modification crosstalk, changes in both acetylated and methylated peptides were evaluated. 38 modified peptides passed this reproducible detection threshold including several established KAT biomarkers[41] including H3K9Ac (KAT2A/B), H3K18Ac (KAT3A/B), H3K14Ac (KAT7), H3K23Ac (KAT6A/B), H4K16Ac (KAT8), and H2A.ZK4/K7Ac (KAT5; Fig. 4B).
Histone modification analysis
MCF-7 cells were cultured at 37 °C under 5% CO2 in EMEM (Quality Biological, 112-016-101) with 0.01 mg/mL human recombinant insulin (Sigma Aldrich, 91077C), 2 mM L-glutamine (Quality Biological, 118- […]
human recombinant insulin.
1119, WM-3835). Following 24 h inhibitor treatment, cells were washed with ice-cold 1× PBS and scraped in 150 µL of Nuclear Isolation Buffer (NIB) containing 0.1% NP-40 for histone extraction using a modified protocol from the Garcia laboratory. 9 Briefly, cell suspensions were incubated on ice for 5 minutes, and […]
nuclei were pelleted by centrifugation (600 rcf, 4°C, 5 min). Pelleted nuclei were washed twice with 150 μL of detergent-free NIB buffer, followed by centrifugation (600 rcf, 4°C, 5 min) to remove all detergent.
Nuclei were then resuspended in 400 μL of 0.4 N H₂SO₄ and rotated at 4°C overnight for acid extraction of histones. The following day, samples were centrifuged (11,000 rcf, 4°C, 10 min) and the histone-containing supernatant was transferred to a fresh tube. Trichloroacetic acid (100% TCA) was added to achieve a final concentration of 20% (v/v), tubes were inverted once to mix, and histone precipitation was performed on ice for at least 3 hours or overnight at 4°C. Precipitated histones were collected by centrifugation (11,000 rcf, 4°C, 10 min) and the supernatant carefully removed, leaving a visible film of histones on the tube wall or bottom. Histone pellets were subjected to sequential washes with 1 mL of ice-cold acidified acetone (0.1% 12 N HCl) followed by 1 mL of 100% ice-cold acetone, with centrifugation (11,000 rcf, 4°C, 5 min) after each wash. Samples were air-dried at room temperature, resuspended in 40 µL of ddH₂O, and protein […]
analysis, 1-2 µg of purified histones were loaded per lane and processed according to the general immunoblotting protocol described in General Materials and Methods.
Analysis of histone modifications by LC-MS/MS
Preparation of histone samples for LC-MS/MS was performed analogously to the procedure for immunoblotting above, with the following modifications. MCF7 cells (4.2 × 106) were seeded in 15 cm dishes and treated with PF-9363 or vehicle. Experiments were performed in triplicate. Following treatment and PBS washing, cells were scraped and collected in 15 mL falcon tubes, pelleted (500 rcf, 4°C, 5 min), resuspended in 1 mL cold PBS, transferred to microcentrifuge tubes, and pelleted again before flash-freezing in liquid nitrogen for storage at -80°C. For extraction, cell pellets (~100 μL) were resuspended in NIB buffer at a 1:10 ratio, and cells were lysed with NIB buffer containing 0.2% NP-40 for 8 minutes on ice. Nuclei were pelleted at 1,000 rcf for 8 minutes and washed three times with 500 μL detergent-free NIB buffer. Histones were extracted using 800 μL of 0.2 M H₂SO₄, and after centrifugation (3,400 rcf, 4°C, 10

COc1cccc(OC)c1S(=O)(=O)Nc1noc2cc(Cn3cccn3)cc(OC)c12 [PF-9363]
Average ratio, H2A1_1_11 K5ac (PF-9363 (0.1 mM)): 0.8521
Average ratio, H2A1_4_11 K5ac (PF-9363 (0.1 mM)): 0.0421
Average ratio, H2A1_4_11 K9ac (PF-9363 (0.1 mM)): 0.0404
Average ratio, H2A1_4_11 unmod (PF-9363 (0.1 mM)): 0.9065
Average ratio, H2A1_36_42 unmod (PF-9363 (0.1 mM)): 0.9991
Average ratio, H2A3_36_42 unmod (PF-9363 (0.1 mM)): 1.0000
Average ratio, H2AJ_4_11 K5acK9ac (PF-9363 (0.1 mM)): 0.8702
Average ratio, H2AV_1_19 K4ac (PF-9363 (0.1 mM)): 0.0404
Average ratio, H2AV_1_19 unmod (PF-9363 (0.1 mM)): 0.8917
Average ratio, H2AX_36_42 unmod (PF-9363 (0.1 mM)): 1.0000
Average ratio, H2AZ_1_19 K11ac (PF-9363 (0.1 mM)): 0.0091
Average ratio, H2AZ_1_19 unmod (PF-9363 (0.1 mM)): 0.8729
Average ratio, H3_73_83 K79me1 (PF-9363 (0.1 mM)): 0.0887
Average ratio, H3_73_83 K79me2 (PF-9363 (0.1 mM)): 0.0735
Average ratio, H3_73_83 unmod (PF-9363 (0.1 mM)): 0.8364
Average ratio, H4_4_17 K12acK16ac (PF-9363 (0.1 mM)): 0.0092
Average ratio, H4_4_17 unmod (PF-9363 (0.1 mM)): 0.6321
Average ratio, H4_20_23 K20me1 (PF-9363 (0.1 mM)): 0.0308
Average ratio, H4_20_23 unmod (PF-9363 (0.1 mM)): 0.0293
Average ratio, H2A1_12_17 unmod (AKAKTR) (PF-9363 (0.1 mM)): 0.4892
Average ratio, H2A3_12_17 K15me1 (AKAKSR) (PF-9363 (0.1 mM)): 0.4715
Average ratio, H2A1_1_11 K5ac (PF-9363 (30 mM)): 0.8566
Average ratio, H2A1_4_11 K5ac (PF-9363 (30 mM)): 0.0480
Average ratio, H2A1_4_11 K9ac (PF-9363 (30 mM)): 0.0347
Average ratio, H2A1_4_11 unmod (PF-9363 (30 mM)): 0.9114
Average ratio, H2A1_36_42 unmod (PF-9363 (30 mM)): 0.9988
Average ratio, H2A3_36_42 unmod (PF-9363 (30 mM)): 1.0000
Average ratio, H2AJ_4_11 K5acK9ac (PF-9363 (30 mM)): 0.8922
Average ratio, H2AV_1_19 K4ac (PF-9363 (30 mM)): 0.0413
Average ratio, H2AV_1_19 unmod (PF-9363 (30 mM)): 0.7807
Average ratio, H2AX_4_11 unmod (PF-9363 (30 mM)): 0.3301
Average ratio, H2AX_36_42 unmod (PF-9363 (30 mM)): 1.0000
Average ratio, H2AZ_1_19 K11ac (PF-9363 (30 mM)): 0.0141
Average ratio, H2AZ_1_19 unmod (PF-9363 (30 mM)): 0.9481
Average ratio, H3_73_83 K79me1 (PF-9363 (30 mM)): 0.0821
Average ratio, H3_73_83 K79me2 (PF-9363 (30 mM)): 0.0558
Average ratio, H3_73_83 unmod (PF-9363 (30 mM)): 0.8605
Average ratio, H4_4_17 K12acK16ac (PF-9363 (30 mM)): 0.1819
Average ratio, H4_4_17 unmod (PF-9363 (30 mM)): 0.4341
Average ratio, H4_20_23 K20me1 (PF-9363 (30 mM)): 0.0237
Average ratio, H4_20_23 unmod (PF-9363 (30 mM)): 0.0213
Average ratio, H2A1_12_17 unmod (AKAKTR) (PF-9363 (30 mM)): 0.5017
Average ratio, H2A3_12_17 K15me1 (AKAKSR) (PF-9363 (30 mM)): 0.4920
Ratio, H2A1_12_17 unmod (Replicate 1, PF-9363 0.1): 0.4969
Ratio, H2A3_12_17 K15me1 (Replicate 1, PF-9363 0.1): 0.4799
Ratio, H2A1_12_17 unmod (Replicate 1, PF-9363 1): 0.5198
Ratio, H2A3_12_17 K15me1 (Replicate 1, PF-9363 1): 0.5023
Ratio, H2A1_12_17 unmod (Replicate 1, PF-9363 10): 0.4982
Ratio, H2A3_12_17 K15me1 (Replicate 1, PF-9363 10): 0.4848
Ratio, H2A1_12_17 unmod (Replicate 1, PF-9363 30): 0.5053
Ratio, H2A3_12_17 K15me1 (Replicate 1, PF-9363 30): 0.497
Ratio, H2A1_12_17 unmod (Replicate 2, PF-9363 0.1): 0.484
Ratio, H2A3_12_17 K15me1 (Replicate 2, PF-9363 0.1): 0.4685
Ratio, H2A1_12_17 unmod (Replicate 2, PF-9363 1): 0.4972
Ratio, H2A3_12_17 K15me1 (Replicate 2, PF-9363 1): 0.4788
Ratio, H2A1_12_17 unmod (Replicate 2, PF-9363 10): 0.498
Ratio, H2A3_12_17 K15me1 (Replicate 2, PF-9363 10): 0.4832
